These results are taken from patent publication US10414774B2, “Compound useful for altering the levels of bile acids for the treatment of diabetes and cardiometabolc disease” (Merck Sharp & Dohme Corp., priority 2016, dated 2019).

SMILES strings stand for the structures. pIC50: −log10 of the molar value.

The first assay deals with T1, Human CYP8B1 (Homo sapiens, UniProt Q9UNU6).
T1 sequence (Q9UNU6 1-501): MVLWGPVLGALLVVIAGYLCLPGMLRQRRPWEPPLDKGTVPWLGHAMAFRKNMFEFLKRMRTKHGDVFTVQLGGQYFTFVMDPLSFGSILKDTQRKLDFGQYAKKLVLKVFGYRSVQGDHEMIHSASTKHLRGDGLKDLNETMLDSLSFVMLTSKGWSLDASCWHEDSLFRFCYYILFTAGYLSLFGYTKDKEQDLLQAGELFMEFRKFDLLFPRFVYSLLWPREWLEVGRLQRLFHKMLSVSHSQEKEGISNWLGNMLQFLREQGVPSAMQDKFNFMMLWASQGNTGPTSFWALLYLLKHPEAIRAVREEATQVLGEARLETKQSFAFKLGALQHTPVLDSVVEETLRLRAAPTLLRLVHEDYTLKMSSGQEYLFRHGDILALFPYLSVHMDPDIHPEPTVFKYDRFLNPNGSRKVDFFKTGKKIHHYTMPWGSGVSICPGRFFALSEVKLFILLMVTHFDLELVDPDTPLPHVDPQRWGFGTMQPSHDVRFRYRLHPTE
Briefly: Human CYP8B1 Liver Microsome Assay. The settings on record: Human CYP8B1 IC50, human liver microsomes; substrate 7a-hydroxy-4-cholesten-3-one, NADPH; RapidFire MS detection of 7α,12α-dihydroxy-4-cholesten-3-one.
The pIC50 is −log10 of the IC50, conventionally taken in molar units. `N#Cc1cnc2ccc(Cl)cc2c1C1CCC(C(=O)N2CCn3c(nnc3C(F)(F)F)C2)CC1` (mixture of isomers) [Example 124, 6-chloro-4-(4-{[3-(trifluoromethyl)-5,6-dihydro[1,2,4]triazolo[4,3-a]pyrazin-7(8H)-yl]carbonyl}cyclohexyl)quinoline-3-carbonitrile] gave a pIC50 of 6.96.

In turn, `C[C@@H]1CN(c2c(C#N)c(C(F)F)nc3ccc(Cl)cc23)CC[C@@H]1C(=O)N1CCn2c(nnc2C(F)(F)F)C1` (single isomer, unassigned) [Example 57a] gave a pIC50 of 7.39.

With `C[C@H]1CN(c2c(C#N)c(C(F)F)nc3ccc(Cl)cc23)CC[C@H]1C(=O)N1CCn2c(nnc2C(F)(F)F)C1` (single isomer, unassigned) [Example 57b], the pIC50 was 5.83.

In turn, `CC1CC(C(=O)N2CCn3c(nnc3C(F)(F)F)C2)CCN1c1c(C#N)cnc2ccc(Cl)cc12` (single isomer, unassigned) [Example 73a, 6-chloro-4-[(2R,4R) or (2S,4S)-2-methyl-4-{[3-(trifluoromethyl)-5,6-dihydro[1,2,4]triazolo[4,3-a]pyrazin-7(8H)-yl]carbonyl}piperidin-1-yl]quinoline-3-carbonitrile] showed a pIC50 of 8.19.

On to `CC1CC(C(=O)N2CCn3c(nnc3C(F)(F)F)C2)CCN1c1c(C#N)cnc2ccc(Cl)cc12` (single isomer, unassigned) [Example 73b, 6-chloro-4-[(2R,4R) or (2S,4S)-2-methyl-4-{[3-(trifluoromethyl)-5,6-dihydro[1,2,4]triazolo[4,3-a]pyrazin-7(8H)-yl]carbonyl}piperidin-1-yl]quinoline-3-carbonitrile], for which the negative-log IC50 (pIC50) is 7.82.

The molecule `CC1CC(C(=O)N2CCn3c(nnc3C(F)(F)F)C2)CCN1c1c(C#N)cnc2ccc(Cl)cc12` (single isomer, unassigned) [Example 73c, 6-chloro-4-[(2R,4S) or (2S,4R)-2-methyl-4-{[3-(trifluoromethyl)-5,6-dihydro[1,2,4]triazolo[4,3-a]pyrazin-7(8H)-yl]carbonyl}piperidin-1-yl]quinoline-3-carbonitrile] had a pIC50 of 7.80.

Turning to `CC1CC(C(=O)N2CCn3c(nnc3C(F)(F)F)C2)CCN1c1c(C#N)cnc2ccc(Cl)cc12` (single isomer, unassigned) [Example 73d, 6-chloro-4-[(2R,4S) or (2S,4R)-2-methyl-4-{[3-(trifluoromethyl)-5,6-dihydro[1,2,4]triazolo[4,3-a]pyrazin-7(8H)-yl]carbonyl}piperidin-1-yl]quinoline-3-carbonitrile], the negative logarithm of the IC50 (pIC50) was 6.20.

Molecule `N#Cc1cnc2ccc(Cl)cc2c1N1CC[C@]2(C(=O)N3CCn4c(nnc4C(F)(F)F)C3)C[C@@H]2C1` (single isomer, unassigned) [Example 81a] gave a negative-log IC50 (pIC50) of 5.89.

The molecule `N#Cc1cnc2ccc(Cl)cc2c1N1CC[C@@]2(C(=O)N3CCn4c(nnc4C(F)(F)F)C3)C[C@H]2C1` (single isomer, unassigned) [Example 81b] showed a pIC50 of 5.72.

`C[C@@H]1CN(c2c(C#N)cnc3ccc(Cl)cc23)CC[C@@H]1C(=O)N1CCn2c(nnc2C(F)(F)F)C1` (single isomer, unassigned) [Example 116a] showed a negative logarithm of the IC50 (pIC50) of 9.40.

As for `CO[C@H]1CN(c2c(C#N)cnc3ccc(Cl)cc23)CCC1C(=O)N1CCn2c(nnc2C(F)(F)F)C1` (stereo in doubt) [Example 72d, 6-chloro-4-[(3R,4R)-3-methoxy-4-{[3-(trifluoromethyl)-5,6-dihydro[1,2,4]triazolo[4,3-a]pyrazin-7(8H)-yl]carbonyl}piperidin-1-yl]quinoline-3-carbonitrile], the pIC50 was 5.21.

In the case of `C[C@@H]1CN(c2c(C#N)cnc3c(F)c(Cl)ccc23)CC[C@@H]1C(=O)N1CCn2c(nnc2C(F)(F)F)C1` [Example 1, 7-chloro-8-fluoro-4-[(3S,4S)-3-methyl-4-{[3-(trifluoromethyl)-5,6-dihydro[1,2,4]triazolo[4,3-a]pyrazin-7(8H)-yl]carbonyl}piperidin-1-yl]quinoline-3-carbonitrile], the pIC50 is 9.33.

Take `COc1ccc2c(N3CC[C@H](C(=O)N4CCn5c(nnc5C(F)(F)F)C4)[C@H](C)C3)c(C#N)cnc2c1F` [Example 2, 8-fluoro-7-methoxy-4-[(3S,4S)-3-methyl-4-{[3-(trifluoromethyl)-5,6-dihydro[1,2,4]triazolo[4,3-a]pyrazin-7(8H)-yl]carbonyl}piperidin-1-yl]quinoline-3-carbonitrile]: the pIC50 was 9.02.

Turning to `C[C@@H]1CN(c2c(C#N)cnc3c(C(F)F)cc(Cl)cc23)CC[C@@H]1C(=O)N1CCn2c(nnc2C(F)(F)F)C1` [Example 3, 6-chloro-8-(difluoromethyl)-4-[(3S,4S)-3-methyl-4-{[3-(trifluoromethyl)-5,6-dihydro[1,2,4]triazolo[4,3-a]pyrazin-7(8H)-yl]carbonyl}piperidin-1-yl]quinoline-3-carbonitrile], the pIC50 is 7.68.

Regarding `C[C@@H]1CN(c2c(C#N)cnc3cc(Br)ccc23)CC[C@@H]1C(=O)N1CCn2c(nnc2C(F)(F)F)C1` [Example 4, 7-bromo-4-[(3S,4S)-3-methyl-4-{[3-(trifluoromethyl)-5,6-dihydro[1,2,4]triazolo[4,5-a]pyrazin-7(8H)-yl]carbonyl}piperidin-1-yl]quinoline-3-carbonitrile], the pIC50 was 9.44.

Molecule `C[C@@H]1CN(c2c(C#N)cnc3cc(O)ccc23)CC[C@@H]1C(=O)N1CCn2c(nnc2C(F)(F)F)C1` [Example 5, 7-hydroxy-4-[(3S,4S)-3-methyl-4-{[3-(trifluoromethyl)-5,6-dihydro[1,2,4]triazolo[4,3-a]pyrazin-7(8H)-yl]carbonyl}piperidin-1-yl]quinoline-3-carbonitrile] had a pIC50 of 8.85.

`C[C@@H]1CN(c2c(C#N)cnc3cc(F)ccc23)CC[C@@H]1C(=O)N1CCn2c(nnc2C(F)(F)F)C1` [Example 6, 7-fluoro-4-[(3S,4S)-3-methyl-4-{[3-(trifluoromethyl)-5,6-dihydro[1,2,4]triazolo[4,3-a]pyrazin-7(8H)-yl]carbonyl}piperidin-1-yl]quinoline-3-carbonitrile]: the pIC50 is 8.68.

In turn, `C[C@@H]1CN(c2c(C#N)cnc3c(F)c(F)c(F)cc23)CC[C@@H]1C(=O)N1CCn2c(nnc2C(F)(F)F)C1` [Example 7, 6,7,8-trifluoro-4-[(3S,4S)-3-methyl-4-{[3-(trifluoromethyl)-5,6-dihydro[1,2,4]triazolo[4,3-a]pyrazin-7(8H)-yl]carbonyl}piperidin-1-yl]quinoline-3-carbonitrile] showed a negative-log IC50 (pIC50) of 8.96.

The molecule `C[C@@H]1CN(c2c(C#N)cnc3c(F)c(F)ccc23)CC[C@@H]1C(=O)N1CCn2c(nnc2C(F)(F)F)C1` [Example 8, 7,8-difluoro-4-[(3S,4S)-3-methyl-4-{[3-(trifluoromethyl)-5,6-dihydro[1,2,4]triazolo[4,3-a]pyrazin-7(8H)-yl]carbonyl}piperidin-1-yl]quinoline-3-carbonitrile] gave a pIC50 of 8.89.

`COc1ccc2ncc(C#N)c(N3CC[C@H](C(=O)N4CCn5c(nnc5C(F)(F)F)C4)[C@H](C)C3)c2c1` [Example 9, 6-methoxy-4-[(3S,4S)-3-methyl-4-{[3-(trifluoromethyl)-5,6-dihydro[1,2,4]triazolo[4,3-a]pyrazin-7(8H)-yl]carbonyl}piperidin-1-yl]quinoline-3-carbonitrile] had a negative-log IC50 (pIC50) of 9.29.

`Cc1nc2c(F)cc(F)cc2c(N2CC[C@H](C(=O)N3CCn4c(nnc4C(F)(F)F)C3)[C@H](C)C2)c1C#N` [Example 10, 6,8-difluoro-2-methyl-4-[(3S,4S)-3-methyl-4-{[3-(trifluoromethyl)-5,6-dihydro[1,2,4]triazolo[4,3-a]pyrazin-7(8H)-yl]carbonyl}piperidin-1-yl]quinoline-3-carbonitrile] showed a pIC50 of 8.55.

Consider `COc1cccc2c(N3CC[C@H](C(=O)N4CCn5c(nnc5C(F)(F)F)C4)[C@H](C)C3)c(C#N)cnc12` [Example 11, 8-methoxy-4-[(3S,4S)-3-methyl-4-{[3-(trifluoromethyl)-5,6-dihydro[1,2,4]triazolo[4,3-a]pyrazin-7(8H)-yl]carbonyl}piperidin-1-yl]quinoline-3-carbonitrile], for which the pIC50 is 8.60.

`C[C@@H]1CN(c2c(C#N)cnc3c(F)cccc23)CC[C@@H]1C(=O)N1CCn2c(nnc2C(F)(F)F)C1` [Example 12, 8-fluoro-4-[(3S,4S)-3-methyl-4-{[3-(trifluoromethyl)-5,6-dihydro[1,2,4]triazolo[4,3-a]pyrazin-7(8H)-yl]carbonyl}piperidin-1-yl]quinoline-3-carbonitrile] gave a pIC50 of 8.96.

Still in this assay, the particulars now being: read-out: Human CYP8B1 IC50; human liver microsomes; substrate 7a-hydroxy-4-cholesten-3-one, NADPH; RapidFire MS detection of 7α,12α-dihydroxy-4-cholesten-3-one.
In the case of `C[C@@H]1CN(c2c(C#N)cnc3ccc(C(F)(F)F)cc23)CC[C@@H]1C(=O)N1CCn2c(nnc2C(F)(F)F)C1` (single isomer, unassigned) [Example 119a], the pIC50 is 7.38.

`C[C@H]1CN(c2c(C#N)cnc3ccc(C(F)(F)F)cc23)CC[C@H]1C(=O)N1CCn2c(nnc2C(F)(F)F)C1` (single isomer, unassigned) [Example 119b]: the negative-log IC50 (pIC50) is 9.52.
